Key:
Assay type in all cases: cell-based
[1] = test system: human colon cancer cells (HT-29); test: In vitro cytotoxicity (SRB) against HT-29; conditions: HT-29 Colon
Method: (§1) The human cancer cell lines were obtained either from National center for cell science, Pune, India or National Cancer Institute, Frederick, MD, U.S.A. Cells were grown in tissue culture flasks in complete growth medium (RPMI-1640 medium with 2 mM glutamine, 100 μg/ml streptomycin, pH 7.4, sterilized by filtration and supplemented with 10% sterilized fetal calf serum and 100 units/ml penicillin before use) at 37° C. in an atmosphere of 5% CO2 and 90% relative humidity in a carbon dioxide incubator. The cells at subconfluent stage were harvested from the flask by treatment with trypsin (0.05% trypsin in PBS containing 0.02% EDTA) and suspended in complete growth medium. Cells with cell viability of more than 97% by trypan blue exclusion technique were used for determination of cytotoxicity.
(§2) Compound 1 was dissolved in DMSO (dimethyl sulphoxide) to obtain a stock solution of 20 mg/ml. The stock solution was serially diluted with complete growth medium containing 50 μg/ml of gentamycin to obtain three working test solutions of 200, 60 and 20 μg/ml.
(§3) The suspension of human cancer cell lines of required cell density in complete growth medium was prepared and cell suspension of each cell line was placed in 96-well tissue culture plate (100 μl per well) for control, Compound 1 and positive control(s). The blank wells for each cell line and concentration of test material were also included that contained equivalent amount of complete growth medium only. The plates were incubated at 37° C. in an atmosphere of 5% CO2 and 90% relative humidity in a carbon dioxide incubator. The experiment was carried out in triplicate.
(§4) After 24-hours of incubation, the working solutions of Compound 1 of different concentrations (100 μl) were added in the experimental wells and blanks whereas positive controls of required concentrations (100 μl) were added into wells for positive controls. The equivalent amount of complete growth medium was added to control set.
(§5) The plates were further incubated for 48-hours (at 37° C. in an atmosphere of 5% CO2 and 90% relative humidity in a carbon dioxide incubator) after addition of test material etc. and then the cell growth was stopped by gently layering of 50 μl of TCA (50% trichloroacetic acid) on top of the medium in all the wells. The plates were incubated at 4° C. for one hour to fix the cells attached to the bottom of the wells. Liquids of all the wells were gently pipetted out and discarded. The plates were washed five times with distilled water to remove TCA, growth medium, low molecular weight metabolites, serum proteins etc. Plates were air dried.
(§6) Cell growth was measured by staining with sulforhodamine B dye (SRB). The SRB solution (100 μl of 0.4% SRB in 1% acetic acid) was added to each well and the plates were incubated at room temperature for 30 minutes. The unbound SRB was quickly removed by washing the wells five times with 1% acetic acid and plates were air dried. Tris-buffer (100 μl of 0.01M, pH 10.4) was added to all the wells and plates were gently stirred for 5 minutes on a mechanical stirrer. The optical density was recorded on ELISA reader at 540 nm.
(§7) The cell growth in presence of test material was determined by subtracting mean OD value of respective blank from the mean OD value of experimental set. Like wise, cell growth in absence of test material (control set) and in presence of positive control was also determined. The per cent cell growth in presence of test material was determined considering the cell growth in absence of test material as 100% and in turn per cent inhibition was calculated.
(§8) The human cancer cell lines were grown, harvested and cytotoxicity was determined exactly as mentioned in Example 3 except that the test material used was Compound 2 that was dissolved in DMSO and three working test solutions were prepared of the same concentrations as in Example 3.

[2] = test system: human cervix cancer cell line (SiHa); test: In vitro cytotoxicity (SRB) against SiHa
Method: as §1, §2, §3, §4, §5, §6, §7, §8

[3] = test system: human lung cancer cells (A-549); test: In vitro cytotoxicity (SRB) against A-549; conditions: A-549 Lung; for Growth inhibition, %: 48 h
Method: as §1, §2, §3, §4, §5, §6, §7, §8

[4] = test system: human lung cancer cell line HOP-62; test: In vitro cytotoxicity (SRB) against HOP-62; conditions: HOP-62 Lung; for Growth inhibition, %: 48 h
Method: as §1, §2, §3, §4, §5, §6, §7, §8

[5] = test system: human ovary cancer cells (OVCAR-5); test: In vitro cytotoxicity (SRB) against OVCAR-5; conditions: OVCAR-5 Ovary; for Growth inhibition, %: 48 h
Method: as §1, §2, §3, §4, §5, §6, §7, §8

[6] = test system: human prostate cancer cell line PC-3; test: In vitro cytotoxicity (SRB) against PC-3; conditions: PC-3 Prostate
Method: as §1, §2, §3, §4, §5, §6, §7, §8

[7] = test system: human liver cancer cells (Hep-2); test: In vitro cytotoxicity (SRB) against Hep-2; conditions: Hep-2 Liver
Method: The human cancer cell lines were obtained either from National center for cell science, Pune, India or National Cancer Institute, Frederick, MD, U.S.A. […] Cells with cell viability of more than 97% by trypan blue exclusion technique were used for determination of cytotoxicity. Compound 1 was dissolved in DMSO (dimethyl sulphoxide) to obtain a stock solution of 20 mg/ml. […] The blank wells for each cell line and concentration of test material were also included that contained equivalent amount of complete growth medium only. The plates were incubated at 37° C. in an atmosphere of 5% CO2 and 90% relative humidity in a carbon dioxide incubator. The experiment was carried out in triplicate. […] The equivalent amount of complete growth medium was added to control set. […] The plates were incubated at 4° C. for one hour to fix the cells attached to the bottom of the wells. Liquids of all the wells were gently pipetted out and discarded. The plates were washed five times with distilled water to remove TCA, growth medium, low molecular weight metabolites, serum proteins etc. Plates were air dried. Cell growth was measured by staining with sulforhodamine B dye (SRB). […] The optical density was recorded on ELISA reader at 540 nm. The cell growth in presence of test material was determined by subtracting mean OD value of respective blank from the mean OD value of experimental set. Like wise, cell growth in absence of test material (control set) and in presence of positive control was also determined. […] The human cancer cell lines were grown, harvested and cytotoxicity was determined exactly as mentioned in Example 3 except that the test material used was Compound 2 that was dissolved in DMSO and three working test solutions were prepared of the same concentrations as in Example 3.

human cancer cell lines = test: In vitro cytotoxicity (SRB), span over the cell line panel; conditions: at 100 μg/ml, all human cancer cell lines studied except HOP-62
Method: as §1, with “cytotoxicity. […]” for “cytotoxicity.”
Cell growth was measured by staining with sulforhodamine B dye (SRB). […] The optical density was recorded on ELISA reader at 540 nm.
as §7, with “calculated. […]” for “calculated.”

[8] = test system: human CNS cancer cells (SK-N-MC); test: In vitro cytotoxicity (SRB) against SK-N-MC; conditions: 48 h
Method: as §1, §2, §3, §4, §5, §6, §7, §8

[9] = Homo sapiens, 1 × 10^−4M, positive control, read-out: Growth inhibition, %
[10] = Homo sapiens, 1 × 10^−5M, positive control, read-out: Growth inhibition, %

| Structure (SMILES) | Growth inhibition, % ([1]; 10 μg/ml, 48 h) | Growth inhibition, % ([1]; 30 μg/ml, 48 h) | Growth inhibition, % ([1]; 100 μg/ml, 48 h) | Growth inhibition, % ([3]; 10 μg/ml) | Growth inhibition, % ([3]; 30 μg/ml) | Growth inhibition, % ([3]; 100 μg/ml) | Growth inhibition, % ([6]; 10 μg/ml, 48 h) | Growth inhibition, % ([6]; 30 μg/ml, 48 h) | Growth inhibition, % ([6]; 100 μg/ml, 48 h) | Growth inhibition, % ([4]; 10 μg/ml) | Growth inhibition, % ([4]; 30 μg/ml) | Growth inhibition, % ([4]; 100 μg/ml) | Growth inhibition, % ([5]; 10 μg/ml) | Growth inhibition, % ([5]; 30 μg/ml) | Growth inhibition, % ([5]; 100 μg/ml) | Growth inhibition, % ([2]; 10 μg/ml, 48 h) | Growth inhibition, % ([2]; 30 μg/ml, 48 h) | Growth inhibition, % ([2]; 100 μg/ml, 48 h) | inhibition of cell growth, span over the cell lines (human cancer cell lines) | Growth inhibition, % ([7]; 10 μg/ml, 48 h) | further results |
| --- | --- | --- | --- | --- | --- | --- | --- | --- | --- | --- | --- | --- | --- | --- | --- | --- | --- | --- | --- | --- | --- |
| O=c1[nH]cc(F)c(=O)[nH]1 [Compound 5FU, reference compound] |  |  |  |  |  |  |  |  |  |  |  |  |  |  |  |  |  |  |  |  | Growth inhibition, % ([1]; 1 × 10^−4M, positive control): 43%; Growth inhibition, % ([2]; 1 × 10^−4M, positive control): 17% |
| CC/C(=C(\c1ccccc1)c1ccc(OCCN(C)C)cc1)c1ccccc1 [Tamoxifen, reference compound] |  |  |  |  |  |  |  |  |  |  |  |  |  |  |  |  |  |  |  |  | inhibition at 100 µM ([3]; Homo sapiens, A549, 1 × 10^−4M, positive control, read-out: Growth inhibition, %): 98%; inhibition at 10 µM ([3]; Homo sapiens, A549, 1 × 10^−5M, positive control, read-out: Growth inhibition, %): 19%; inhibition at 100 µM [4, 9]: 20%; inhibition at 10 µM [4, 10]: 2%; inhibition at 100 µM [5, 9]: 100%; inhibition at 10 µM [5, 10]: 0% |
| CO[C@@]12[C@H](COC(N)=O)C3=C(C(=O)C(C)=C(N)C3=O)N1C[C@@H]1N[C@@H]12 [Mytomycin C, reference compound] |  |  |  |  |  |  |  |  |  |  |  |  |  |  |  |  |  |  |  |  | Growth inhibition, % ([6]; 1 × 10^−5M, positive control): 78%; Growth inhibition, % ([7]; 1 × 10^−5M, positive control): 87% |
| C=C[C@]1(C)C=C2CCC3[C@@](C)(CCC[C@@]3(C)C(=O)O)C2CC1 (stereo partly drawn) [Compound 1, ent-pimmarane 8(14),15-diene-19 oic acid] | 02% | 70% | 94% | 13% | 72% | 94% | 05% | 78% | 97% | 00% | 00% | 03% | 00% | 66% | 76% | 00% | 14% | 41% | 41-97% | 20% | Growth inhibition, % ([7]; 30 μg/ml, 48 h): 68%; Growth inhibition, % ([7]; 100 μg/ml, 48 h): 80%; Growth inhibition, % ([8]; 10 μg/ml): 00%; Growth inhibition, % ([8]; 30 μg/ml): 75%; Growth inhibition, % ([8]; 100 μg/ml): 88% |
| C=CC1(C)CC=C2C(=CCC3C(C)(C(=O)O)CCCC23C)C1 (stereo not drawn) [Compound 2, ent-pimmarane 7(8),9(11),15 triene-19 oic acid] | 00% | 70% | 95% | 09% | 71% | 97% | 00% | 83% | 94% | 00% | 00% | 00% | 12% | 67% | 96% | 00% | 8% | 38% | 38-97% | 18% | Growth inhibition, % ([7]; 30 μg/ml, 48 h): 70%; Growth inhibition, % ([7]; 100 μg/ml, 48 h): 91%; Growth inhibition, % ([8]; 10 μg/ml): 22%; Growth inhibition, % ([8]; 30 μg/ml): 85%; Growth inhibition, % ([8]; 100 μg/ml): 92% |

From US20040192777A1, “Novel anticancer diterpene compounds, process and uses thereof” (COUNCIL OF SCIENTIFIC AND INDUSTRIAL, priority 2003, published 2004)
